Tests used:
[1] = test system: A549; assay: Antitumor activity against Homo sapiens (human) A549 cells assessed as cell growth inhibition after 48 hr by MTT assay; type: functional, cell-based
[2] = test system: MCF7; assay: Antitumor activity against Homo sapiens (human) MCF7 cells assessed as cell growth inhibition after 48 hr by MTT assay; type: functional, cell-based
[3] = test system: HepG2; assay: Ratio of doxorubicin IC50 to compound IC50 for Homo sapiens (human) HepG2 cells; type: functional
[4] = test system: HepG2; assay: Antitumor activity against Homo sapiens (human) HepG2 cells assessed as cell growth inhibition after 48 hr by MTT assay; type: functional, cell-based
[5] = test system: HCT-116; assay: Antitumor activity against Homo sapiens (human) HCT116 cells assessed as cell growth inhibition after 48 hr by MTT assay; type: functional, cell-based
[6] = test system: MCF7; assay: Ratio of doxorubicin IC50 to compound IC50 for Homo sapiens (human) MCF7 cells; type: functional
[7] = Homo sapiens, A549, 48 h, read-out: IC50
[8] = Homo sapiens, MCF7, 48 h, read-out: IC50
[9] = Homo sapiens, HepG2, 48 h, read-out: IC50
[10] = Homo sapiens, HCT-116, 48 h, read-out: IC50

For `C[C@@H]1CC[C@@]2(OC1)O[C@H]1C[C@H]3[C@@H]4CC[C@@H]5C[C@@H](O[C@@H]6O[C@H](CO)[C@@H](O)[C@H](O)[C@H]6O[C@@H]6O[C@H](CO)[C@H](O)[C@H](O)[C@H]6O)CC[C@]5(C)[C@H]4CC[C@]3(C)[C@H]1[C@@H]2C`, which “growth inhibition (GI)” value [1] is on record?
Its value is “Dose-dependent effect”.

And the IC50 [1, 7]?
The IC50 was 16.5 µM.

What about the “growth inhibition (GI)” value [2] of the same compound?
Its value is “Dose-dependent effect”.

What about the IC50 [2, 8] of the same compound?
The IC50 was 4 µM.

What about the “Ratio IC50” value [3] of the same compound?
The value was 2.

What about the “growth inhibition (GI)” value [4] of the same compound?
Its value is “Dose-dependent effect”.

And the IC50 [4, 9]?
Its IC50 is 3.5 µM.

What about the “growth inhibition (GI)” value [5] of the same compound?
The value was “Dose-dependent effect”.

What about the IC50 [5, 10] of the same compound?
The IC50 was 4.4 µM.

With `COc1cccc2c1C(=O)c1c(O)c3c(c(O)c1C2=O)C[C@@](O)(C(=O)CO)C[C@@H]3O[C@H]1C[C@H](N)[C@H](O)[C@H](C)O1` [DOXORUBICIN] as the compound, how does the IC50 [1, 7] read?
The IC50 was 0.84 µM.

And the IC50 [4, 9]?
The IC50 was 7.36 µM.

And the IC50 [5, 10]?
Its IC50 is 6.86 µM.

With `CO[C@]1(CC[C@H](C)CO[C@@H]2O[C@H](CO)[C@@H](O)[C@H](O)[C@H]2O)O[C@H]2C[C@H]3[C@@H]4CC[C@@H]5C[C@@H](O[C@@H]6O[C@H](CO)[C@@H](O)[C@H](O)[C@H]6O[C@@H]6O[C@H](CO)[C@H](O)[C@H](O)[C@H]6O)CC[C@]5(C)[C@H]4CC[C@]3(C)[C@H]2[C@@H]1C` as the compound, how does the IC50 ([1]; a549) read?
Its IC50 is “Not Active”.

What about the IC50 ([2]; mcf7) of the same compound?
The IC50 was “Not Active”.

And the IC50 ([4]; hepg2)?
The IC50 was “Not Active”.

And the IC50 ([5]; hct-116)?
The IC50 was “Not Active”.

How did the IC50 ([1]; a549) turn out when `C[C@@H](CC[C@@]1(O)O[C@H]2C[C@H]3[C@@H]4CC[C@@H]5C[C@@H](O[C@@H]6O[C@H](CO)[C@@H](O)[C@H](O)[C@H]6O[C@@H]6O[C@H](CO)[C@H](O)[C@H](O)[C@H]6O)CC[C@]5(C)[C@H]4CC[C@]3(C)[C@H]2[C@@H]1C)CO[C@@H]1O[C@H](CO)[C@@H](O)[C@H](O)[C@H]1O` was run?
Its IC50 is “Not Active”.

What about the IC50 ([2]; mcf7) of the same compound?
Its IC50 is “Not Active”.

And the IC50 ([4]; hepg2)?
Its IC50 is “Not Active”.

And the IC50 ([5]; hct-116)?
The IC50 was “Not Active”.

With `C[C@@H]1CC[C@@]2(OC1)O[C@H]1C[C@H]3[C@@H]4CC[C@@H]5C[C@@H](O[C@@H]6O[C@H](CO)[C@H](O[C@@H]7O[C@H](CO)[C@@H](O)[C@H](O[C@@H]8O[C@H](CO)[C@@H](O)[C@H](O)[C@H]8O)[C@H]7O[C@@H]7O[C@H](CO)[C@H](O)[C@H](O)[C@H]7O[C@@H]7OC[C@@H](O)[C@H](O)[C@H]7O)[C@H](O)[C@H]6O)CC[C@]5(C)[C@H]4CC[C@]3(C)[C@H]1[C@@H]2C` [Desmettianoside C] as the compound, how does the “growth inhibition (GI)” value [1] read?
The value was “Dose-dependent effect”.

And the IC50 [1, 7]?
Its IC50 is 10.2 µM.

What about the “growth inhibition (GI)” value [2] of the same compound?
The value was “Dose-dependent effect”.

What about the IC50 [2, 8] of the same compound?
The IC50 was 2.6 µM.

What about the “Ratio IC50” value [6] of the same compound?
Its value is 2.

And the “growth inhibition (GI)” value [4]?
Its value is “Dose-dependent effect”.

What about the IC50 [4, 9] of the same compound?
Its IC50 is 1.1 µM.

And the “growth inhibition (GI)” value [5]?
Its value is “Dose-dependent effect”.

What about the IC50 [5, 10] of the same compound?
Its IC50 is 2.4 µM.

From ChEMBL document CHEMBL3046560, “Steroidal saponins from the leaves of Yucca de-smetiana and their in vitro antitumor activity: structure activity relationships through a molecular modeling approach” (Med Chem Res, 2013)
